Holding throughout (format): in vivo
Experiment [1] has as its system LAMSS. In words: Post-emergent Test III, herbicidal activity in wheat and barley. The note with it: for pest or weed control at 35 g/ha / pest or weed control at 70 g/ha / pest or weed control at 140 g/ha: post-emergence, 504 h, read-out: Visual Growth Reduction (%) 21 Days After Application LAMSS; for pest or weed control at 35 g/ha: 35 g ai/ha; for pest or weed control at 70 g/ha: 70 g ai/ha; for pest or weed control at 140 g/ha: 140 g ai/ha; for GR50 LAMSS / GR80 LAMSS: probit analysis, 21 days after application; for GR50 LAMSS: dose for growth reduction of 50 percent; for GR80 LAMSS: dose for growth reduction of 80 percent. The method in brief:
(§1)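 GR20, GR50, GR80 and GR90 come from probit analysis of visual injury scores (0 = none, 100 = complete kill) taken 21 d after treatment. Foliar application was by track sprayer delivering 187 L/ha at five rates, from high down to 1/16×, onto greenhouse plants at the 2–3 leaf stage, with solvent-blank controls.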

In experiment [2] the test system is VERPE: bird's-eye speedwell (veronica persica). Described as above. The conditions noted are these: for pest or weed control at 35 g/ha / pest or weed control at 70 g/ha / pest or weed control at 140 g/ha: Veronica persica, post-emergence, 504 h, read-out: Visual Growth Reduction (%) 21 Days After Application VERPE; for pest or weed control at 35 g/ha: 35 g ai/ha; for pest or weed control at 70 g/ha: 70 g ai/ha; for pest or weed control at 140 g/ha: 140 g ai/ha; for GR50 VERPE / GR80 VERPE: probit analysis, 21 days after application; for GR50 VERPE: dose for growth reduction of 50 percent; for GR80 VERPE: dose for growth reduction of 80 percent. The method in brief: as §1

Experiment [3] concerns BROTE: downy brome (Bromus tectorum). The description is as above. The note with it: for pest or weed control at 35 g/ha / pest or weed control at 70 g/ha / pest or weed control at 140 g/ha: Bromus tectorum, post-emergence, 504 h, read-out: Visual Growth Reduction (%) 21 Days After Application BROTE; for pest or weed control at 35 g/ha: 35 g ai/ha; for pest or weed control at 70 g/ha: 70 g ai/ha; for pest or weed control at 140 g/ha: 140 g ai/ha; for GR50 BROTE / GR80 BROTE: probit analysis, 21 days after application; for GR50 BROTE: dose for growth reduction of 50 percent; for GR80 BROTE: dose for growth reduction of 80 percent. The method in brief: as §1

For experiment [4], the system named is AVEFA: wild oats (Avena fatua). In words: Pre-emergent Test I herbicidal activity. The conditions noted are these: pre-emergence, 336 h, 4 kg ai/ha, read-out: Visual Growth Reduction (%) 14 Days After Application, AVEFA. In short, it runs like this: (§2)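 Sandy loam pots; sub-irrigation 16 h pre-application; soil-surface application then water incorporation; greenhouse ~15 h light, 23-29° C day / 22-28° C night; 0-100 rating at 14 DAT vs controls.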

Experiment [5] deals with ECHCG: barnyardgrass (Echinochloa crus-galli). In words: Pre-emergent Test I herbicidal activity. The note with it: pre-emergence, 336 h, 4 kg ai/ha, read-out: Visual Growth Reduction (%) 14 Days After Application, ECHCG. The method in brief: as §2
In experiment [6] the test system is AMARE: redroot pigwseed (Amaranthus retroflexus). In words: Pre-emergent Test I herbicidal activity. The note with it: pre-emergence, 336 h, 4 kg ai/ha, read-out: Visual Growth Reduction (%) 14 Days After Application, AMARE. In short, it runs like this:
as §2

Experiment [7] deals with HELAN: sunflower (Helianthus annuus). In words: Pre-emergent Test I herbicidal activity. The note with it: pre-emergence, 336 h, 4 kg ai/ha, read-out: Visual Growth Reduction (%) 14 Days After Application, HELAN. In short, it runs like this: as §2
Experiment [8] has as its system IPOHE: ivyleaf morningglory (Ipomoea hederecea). Put plainly: Pre-emergent Test I herbicidal activity. The conditions noted are these: pre-emergence, 336 h, 4 kg ai/ha, read-out: Visual Growth Reduction (%) 14 Days After Application, IPOHE. The method in brief:
as §2

Experiment [9] has as its system SETFA: giant foxtail (Setaria faberi). In words: Pre-emergent Test I herbicidal activity. The note with it: pre-emergence, 336 h, 4 kg ai/ha, read-out: Visual Growth Reduction (%) 14 Days After Application, SETFA. The method in brief: as §2

The text below walks through data of US9113629B2, “4-amino-6-(4-substituted-phenyl)-picolinates and 6-amino-2-(4-substituted-phenyl)-pyrimidine-4-carboxylates and their use as herbicides” (DOW AGROSCIENCES LLC, priority 2013, dated 2015).

SMILES strings stand for the structures. Where only a bound is given, the exact number is not on record here.

As for `COC(=O)c1nc(-c2ccc(Br)cc2)c(F)c(N)c1Cl` [Compound 138, Methyl 4-amino-6-(4-bromophenyl)-3-chloro-5-fluoropicolinate], in experiment [1], the pest or weed control at 35 g/ha lay in the range of 95 to 100%, the pest or weed control at 70 g/ha is 95 to 100%, the pest or weed control at 140 g/ha was in the range of 95 to 100% and the “GR50 LAMSS” value was 1 g ai/ha. Moreover, in experiment [1], the “GR80 LAMSS” value was found to be 1 g ai/ha. Besides, in [2], the pest or weed control at 35 g/ha was 60 to 74%, the pest or weed control at 70 g/ha was 85 to 94%, the pest or weed control at 140 g/ha lay in the range of 85 to 94% and the “GR50 VERPE” value came to 15 g ai/ha. For the same compound, the “GR80 VERPE” value in experiment [2] is given as 49 g ai/ha. Further, in [3], the pest or weed control at 35 g/ha is 75 to 84%, the pest or weed control at 70 g/ha lay in the range of 85 to 94%, the pest or weed control at 140 g/ha lay within 85 to 94% and the “GR50 BROTE” value worked out at 12 g ai/ha. Besides, the “GR80 BROTE” value in [3] came out at 42 g ai/ha. For the same compound, in [4], the pest or weed control at 4000 g/ha lay within 95 to 100%. For the same compound, the pest or weed control at 4000 g/ha in experiment [5] fell in the range of 95 to 100%. For the same compound, the pest or weed control at 4000 g/ha in experiment [6] lay in the range of 95 to 100%. Also, the pest or weed control at 4000 g/ha in experiment [7] was 95 to 100%. For the same compound, the pest or weed control at 4000 g/ha in experiment [8] lay within 95 to 100%. Moreover, in experiment [9], the pest or weed control at 4000 g/ha was 95 to 100%.
Regarding `Nc1c(F)c(-c2ccc(OC(F)F)cc2)nc(C(=O)O)c1Cl` [Compound 143], in experiment [1], the pest or weed control at 35 g/ha is 85 to 94%, the pest or weed control at 70 g/ha is 85 to 94%, the pest or weed control at 140 g/ha lay in the range of 85 to 94% and the “GR50 LAMSS” value came out at 1 g ai/ha. Besides, the “GR80 LAMSS” value in [1] was 1 g ai/ha. Besides, in experiment [2], the pest or weed control at 35 g/ha is 30 to 44%, the pest or weed control at 70 g/ha fell in the range of 45 to 59%, the pest or weed control at 140 g/ha was 45 to 59% and the “GR50 VERPE” value was 97 g ai/ha. The “GR80 VERPE” value in experiment [2] was above 140 g ai/ha. In experiment [3], the pest or weed control at 35 g/ha lay within 0 to 29%, the pest or weed control at 70 g/ha lay within 45 to 59%, the pest or weed control at 140 g/ha lay in the range of 45 to 59% and the “GR50 BROTE” value was 95 g ai/ha. Further, in experiment [3], the “GR80 BROTE” value is recorded as above 140 g ai/ha. In addition, the pest or weed control at 4000 g/ha in [4] is 60 to 74%. Further, the pest or weed control at 4000 g/ha in experiment [5] is 85 to 94%. In experiment [6], the pest or weed control at 4000 g/ha is 85 to 94%. Moreover, in [7], the pest or weed control at 4000 g/ha lay in the range of 95 to 100%. The pest or weed control at 4000 g/ha in experiment [8] was 85 to 94%. Further, the pest or weed control at 4000 g/ha in experiment [9] is 95 to 100%.
